According to patent US20090263838A1, “Method for determining a lung cancer treatment and method for determining the effectiveness of an agent for treatment of lung cancer” (Sanko Junyaku Co., Ltd., priority 2008, published 2009):
Read-outs that look alike come from different tables or passages of the source.

Tested on: non-small cell lung cancer (NSCLC) patients
Description: Potential factors linked to survival such as age, gender, performance status, smoking history, tumor histology, number of prior chemotherapy regimen, and presence of distant metastasis were also reviewed for each patient. Pretreatment interstitial lung disease was diagnosed using a high resolution computed tomography scan of the chest by diagnostic radiologists blinded to any clinical information.
The tumor response was assessed as complete response (CR), partial response (PR), no change (NC), or progressive disease (PD) according to the World Health Organization Criteria.
The cut-off level of KL-6 was set at 500 U/ml based on the levels of healthy individuals as reported previously.
Genomic DNAs were extracted from frozen or paraffin embedded specimens and the mutational status of the EGFR tyrosine kinase domain (through exons 18 to 21) was examined by the direct sequence method as described previously. In brief, the PCR amplification for extracted DNAs was done using HotStarTaq DNA polymerase (Qiagen Inc., Valencia, Calif.) with the specific primers and PCR conditions. PCR products were incubated using ExoSAP-IT (Amersham Biosciences Corp., Piscataway, N.J.) and then it was sequenced directly using the Applied Biosystems PRISM dye terminator cycle sequencing method (Perkin-Elmer Corp., Foster City, Calif.) with ABI PRISM 3100 Genetic Analyzer (Applied Biosystems, Foster City, Calif.).
The associations between various clinical factors were evaluated using either the χ^2 test or the Fisher's exact test. […] The progression-free and overall survival times were both calculated using the Kaplan-Meier method; different groups were compared using the log-rank test. Associations of various factors with survival were evaluated using the backward stepwise Cox regression analysis. Differences were considered to be statistically significant if the p value was less than 0.05.

[1] = patients with elevated KL-6 (≧500 U/ml)
[2] = patients with normal range of KL-6

## COc1cc2ncnc(Nc3ccc(F)c(Cl)c3)c2cc1OCCCN1CCOCC1 [gefitinib]
All 41 NSCLC patients
  complete response (CR), number of patients: One
  early discontinuance of gefitinib (less than 2 weeks) because of rapid tumor progression: 3 (7%) patients
  no change (NC), number of patients: 20 patients
  partial response (PR), number of patients: ten
  progressive disease (PD), number of patients: 10 patients
All 41 NSCLC patients, gefitinib 250 mg daily oral, WHO criteria
  overall objective response rate: 26.8%
All 41 patients
  1-year survival rate: 61.0%
  2-year survival rate: 29.8%
  median overall survival time: 13.9 months
  median progression-free survival time: 4.7 months
All 41 patients, during the study period
  severe interstitial lung disease or treatment-related death due to gefitinib treatment: neither severe interstitial lung disease nor treatment-related death occurred
Patients with an EGFR mutation
  overall survival: 17.8 months
[1]
  median overall survival time: 8.5 months
  median progression-free survival time: 2.1 months
Patients with elevated serum KL-6 levels (≧500 U/ml)
  response to gefitinib: 23%
[2]
  median overall survival time: 21.1 months
  median progression-free survival time: 5.8 months
Patients with wild-type EGFR
  overall survival: 8.5 months
Patients with wild-type EGFR and elevated serum KL-6
  median survival time: 6.5 months
Patients with wild-type EGFR and normal range of KL-6
  median survival time: 13.3 months
Patients without elevated serum KL-6 levels
  response to gefitinib: 32%
